From patent US20090176786A1, “Benzoylurea Compounds and Use Thereof” (priority 2005, published 2009) come the findings set out here.

What all share (type): in vivo
Assay [1] relates to Plutella xylostella. Description: Test Example 1: spray on cabbage, dead pest rate of Plutella xylostella larvae. As to conditions: 500 ppm spray solution, 20 ml/cup on cabbage, 5 second-instar larvae, after 5 days; for pest or weed control at 500 ppm: Plutella xylostella, 120 h. How it is done:
Ten parts of the present compound (1), (2), (5) to (19), (21) to (34), (36) to (61), (63), (64), (68) to (71), (74), (76) to (78), (82) to (83), (89), (93), (94), (97), (99), (102) to (110), (111), (115), (116) (117) to (120) or (123) to (134); 35 parts of white carbon containing 50 parts of polyoxyethylene alkyl ether sulfate ammonium salt; and 55 parts of water were mixed, and finely ground by a wet grinding method to obtain a 10% flowable agent. The obtained flowable agent was diluted with water so that the active ingredient concentration became to 500 ppm to prepare a spray solution for test.
Cabbages were planted in polyethylene cups, and grown until the third true leaf or the fourth true leaf was developed. The spray solution for test prepared above was sprayed at a rate of 20 ml/cup on the cabbages.
After the pesticidal solution sprayed onto the cabbages was dried, 5 second-instar larvae of Plutella xylostella were put on the cabbages. After 5 days, the number of dead Plutella xylostella was examined, and a dead pest rate was calculated by the following equation:
(§1) Dead pest rate(%)=(the number of dead pests/the number of tested pests)×100

For assay [2], the system named is Plutella xylostella. Description: Test Example 2: cabbage root immersion (systemic), dead pest rate of Plutella xylostella larvae. The following applies: Plutella xylostella, 120 h, root immersion 5 days, 10 second-instar larvae, after 5 days at 24° C.; for pest or weed control at 25 ppm: test concentration 25 ppm. How it is done: In 0.25 mL of a mixture solution of Sorgen TW-20 (manufactured by Daiichi Industries Pharmaceuticals, Co., Ltd.) and acetone (mixture volume ratio; Sorgen TW-20:acetone=1:19), 2.5 mg of the present compound (1), (2), (3), (4), (7), (10), (11), (12), (16), (18), (19), (20), (21), (22), (25), (30), (36), (37), (41), (42), (52), (54), (56), (57), (60), (62), (105) or (109) was dissolved. The solution was diluted with ion-exchanged water so that the active ingredient concentration became to a predetermined concentration to prepare a pesticidal solution for test of the test compound. The root part of cabbages in the fourth leaf period were washed with tap water to remove soils, and then immersed in the pesticidal solution for test. After 5 days from immersion of the root part, the root part was removed, and the leaves and stems were put in a cup (volume; 180 mL). In the cup 10 second-instar larvae of Plutella xylostella were released, and the cup was stored at 24° C. After 5 days, the number of dead pests was counted, and the dead pest rate was calculated by the following equation:
as §1
The test concentrations of the other present compounds were 25 ppm.

For assay [3], the system named is Frankliniella occidentalis. Description: Test Example 4: spray on cucumber, control value against Frankliniella occidentalis larvae. As to conditions: 168 h, test concentration 50 ppm, spray 20 ml/cup on cucumber, 30 larvae, seven days after spraying. As to the method:
The obtained preparation was diluted with water so that the active ingredient concentration became to a predetermined concentration to prepare a spray solution for test. […] were planted in polyethylene cups, and were grown until the first true leaf was developed. The spray solution for test prepared above was sprayed at the rate of 20 ml/cup on the cucumber. After the pesticidal solution sprayed onto the cucumber was dried, the first true leaf was cut off and then placed on a filter paper (diameter: 70 mm) containing water in a polyethylene cup (diameter: 110 mm). On the cucumber leaf, 30 larvae of Frankliniella occidentalis were released, and the polyethylene cup was capped. Seven days after spraying, the number of pests surviving on the cucumber leaf was counted, and a control value was calculated by the following equation: Control value(%)={1−(Cb×Tai)/(Cai×Tb)}×100 wherein, each symbol has following meaning: Cb: the number of pests before treatment in a non-treated area Cai: the number of pests at the time of observation in a non-treated area Tb: the number of pests before treatment in a treated-area Tai: the number of pests at the time of observation in a treated-area. […] The test concentrations of the other present compounds were 50 ppm.

The subject of assay [4] is Plutella xylostella. Description: Test Example 9: spray on plants, cut aerial part, dead pest rate of third-instar Plutella xylostella larvae. The following applies: 120 h, spray 20 ml/cup, 10 third-instar larvae, after 5 days at 25° C.; for pest or weed control at 12.5 ppm: test concentration 12.5 ppm; for pest or weed control at 50 ppm: test concentration 50 ppm; for pest or weed control at 200 ppm: test concentration 200 ppm. As to the method: In a mixed solution (0.1 mL) of xylene and N,N-dimethylformamide (mixture volume ratio; xylene:N,N-dimethylformamide=1:1), 30 mg of the present compounds (3), (4), (20), (35), (62), (81), (100), (101) or (112) was dissolved, and further a mixed solution (0.1 mL) of xylene and SORPOL 3005X (manufactured by Toho Chemcials, Co., Ltd.) (mixture volume ratio; xylene:SORPOL 3005X=1:9) was added thereto. The solution was diluted with ion-exchanged water so that the active ingredient became to the predetermined concentration to prepare a pesticidal solution for test of the test compound.
[…] were planted in polyethylene cups, and grown until the third true leaf or the fourth true leaf was developed. The spray solution for test prepared above was sprayed at a rate of 20 ml/cup on the cabbages.
After the pesticidal solution for test was dried, the aerial part of the cabbage was cut, and put into a polyethylene cup having a volume of 100 ml together with 10 third-instar larvae of Plutella xylostella, and stored at 25° C. After 5 days, the number of dead pests was countered, and the dead pest rate was calculated by the following equation:
as §1
Test concentrations of the others were 200 ppm.

The subject of assay [5] is Spondoptela litura. Description: Test Example 3: treated artificial diet (Insecta LF), dead pest rate of Spondoptela litura larvae. As to conditions: 2 mL on Insecta LF diet, 5 fourth-instar larvae, after 6 days; for pest or weed control at 500 ppm: 144 h.
Text: Ten parts of the present compound (1) to (5), (7) to (13), (18) to (33), (35) to (49), (52) to (56), (58) to (61), (71), (73) to (77), (79), (80), (82), (83), (93), (94), (95), (96), (97), (100) to (109), (111), (112), (115), (117), (119), (121), or (123) to (133), 35 parts of white carbon containing 50 parts of polyoxyethylene alkyl ether sulfate ammonium salt, and 55 parts of water were mixed, and finely ground by a wet grinding method to obtain a preparation. The obtained preparation was diluted with water so that the active ingredient concentration became to 500 ppm to prepare a pesticidal solution for test. On the bottom of a polyethylene cup having a diameter of 5.5 cm, a filter paper having a diameter of 5.5 cm was placed, on which Insecta LF (Nippon Agriculture Industries, Co., Ltd.) sliced in a thickness of 6 mm and further cut half was laid, and to which 2 mL of the above-described pesticidal solution for test was added. After air-dried, 5 fourth-instar larvae of Spondoptela litura were released in the cup, and the cup was capped. After 6 days, the number of dead pests was counted, and the dead pest rate was calculated by the following equation:
as §1

For assay [6], the system named is Plutella xylostella. As to the kind of experiment: Test Example 6: cabbage root immersion, Plutella xylostella, against comparative compound C. As to conditions: 100 ppm; root immersion 5 days; 10 second-instar larvae; after 5 days at 24° C. As to the method:
In 0.25 mL of a mixed solution of Tween-20 and acetone (mixture volume ratio: Tween-20:acetone=1:19), 2.5 mg of the present compound (93) or comparative compound C was dissolved. The solution was diluted with ion-exchanged water so that the active ingredient concentration became to the predetermined concentration (100 ppm) to prepare a pesticidal solution for test of the test compound. The root part of cabbages in the fourth leaf period was washed with tap water to remove soils, and then immersed in the pesticidal solution for test. After 5 days from immersion of the root part, the root part was removed, and the leaves and stems were put in a polyethylene cup (volume; 180 mL). In the cup 10 second-instar larvae of Plutella xylostella were released, and the cup was stored at 24° C. After 5 days, the number of dead pests was countered, and the dead pest rate was calculated by the following equation:
as §1

`CN(C(=O)NC(=O)c1c(F)cccc1F)c1ccc(SC(F)(F)F)cc1F` [(1)] returned a pest or weed control at 500 ppm in assay [1] of 100%. Also, in assay [2], the pest or weed control at 25 ppm stood at 100%. In assay [3], this compound returned a pest or weed control at 50 ppm of 100%.

The compound `CN(C(=O)NC(=O)c1c(F)cccc1F)c1ccc(SC(F)(F)C(F)F)cc1F` [(2)] registered a pest or weed control at 500 ppm in assay [1] of 100%. The same compound displayed a pest or weed control at 25 ppm in assay [2] of 100%. This compound also gave a pest or weed control at 50 ppm in assay [3] of 100%. Compound `CN(C(=O)NC(=O)c1c(F)cccc1Cl)c1ccc(SC(F)(F)F)cc1F` [(3)] registered a pest or weed control at 25 ppm in assay [2] of 100%. The compound further came in with a pest or weed control at 12.5 ppm in assay [4] of 100%. In turn, `CCN(C(=O)NC(=O)c1c(F)cccc1F)c1ccc(SC(F)(F)F)cc1F` [(4)] yielded a pest or weed control at 25 ppm in assay [2] of 100%. Moreover, the pest or weed control at 50 ppm in assay [3] and in assay [4] was 100% in each case.

Consider `CN(C(=O)NC(=O)c1c(F)cccc1F)c1ccc(S(=O)(=O)C(F)(F)F)cc1F` [(20)], for which the pest or weed control at 5 ppm in assay [2] (test concentration of 5 ppm, read-out: dead pest rate) was 100%. In addition, the pest or weed control at 12.5 ppm in assay [4] worked out at 100%. Compound `Cc1cc(SC(F)F)ccc1N(C)C(=O)NC(=O)c1c(F)cccc1F` [(35)] returned a pest or weed control at 50 ppm in assay [4] of 100%.

In assay [2], `CN(C(=O)N(CCOc1ccccc1)C(=O)c1c(F)cccc1F)c1ccc(SC(F)(F)F)cc1F` [(62)] gave a pest or weed control at 25 ppm of 100%. In addition, the pest or weed control at 50 ppm in assay [3] amounted to 100%. This compound also yielded a pest or weed control at 200 ppm in assay [4] of 100%. Regarding `CN(C(=O)N(CC1CCCO1)C(=O)c1c(F)cccc1F)c1ccc(SC(F)(F)F)cc1F` (centres unmarked) [(63)], the pest or weed control at 500 ppm in assay [1] came out at 100%. Same read-out and setting: the value for `CN(C(=O)N(Cc1ccco1)C(=O)c1c(F)cccc1F)c1ccc(SC(F)(F)F)cc1F` [(64)] was 100%. Compound `CN(C(=O)N(CC[S+](C)[O-])C(=O)c1c(F)cccc1F)c1ccc(SC(F)(F)F)cc1F` (centres unmarked) [(74)] yielded a control value in assay [1] of 100%. Turning to `COC(=O)CN(C(=O)c1c(F)cccc1F)C(=O)N(C)c1ccc(SC(F)(F)F)cc1F` [(81)], the pest or weed control at 50 ppm in assay [3] worked out at 100%. The compound also returned a pest or weed control at 200 ppm in assay [4] of 100%. For the compound `CN(C(=O)NC(=O)c1c(F)cccc1F)c1ccc(C(=O)OC(C)(C)C)cc1` [(82)], the control value in assay [1] amounted to 100%. In assay [5] (500 ppm), the dead pest rate is 100%. In the case of `C=CCSc1ccc(N(C)C(=O)NC(=O)c2c(F)cccc2F)c(F)c1` [(83)], the pest or weed control at 500 ppm in assay [1] and in assay [5] was 100% throughout. With `C#CCSc1ccc(N(C)C(=O)NC(=O)c2c(F)cccc2F)c(F)c1` [(89)], the pest or weed control at 500 ppm in assay [1] is 100%. Consider `CN(C(=O)NC(=O)c1c(F)cccc1F)c1cc(Cl)c(SC(F)(F)C(F)F)c(Cl)c1` [(93)], for which the pest or weed control at 500 ppm in assay [1] and in assay [5] was 100% each time. This compound also returned a dead pest rate in assay [6] of 90%. With `CN(C(=O)N(C(=O)OCc1ccccc1)C(=O)c1c(F)cccc1F)c1ccc(SC(F)(F)F)cc1F` [(97)], the pest or weed control at 500 ppm in assay [1] and in assay [5] was 100% throughout. Moreover, the pest or weed control at 50 ppm in assay [3] is 100%. In assay [1], `CN(C(=O)N(C(=O)c1c(F)cccc1F)S(=O)(=O)c1ccccc1)c1ccc(SC(F)(F)F)cc1F` [(99)] registered a pest or weed control at 500 ppm of 100%.

Regarding `CN(C(=O)NC(=O)c1c(F)cccc1F)c1cc(F)c(SC(F)(F)F)cc1F` [(100)], in assay [4], the pest or weed control at 200 ppm is 100%. In the case of `CN(C(=O)c1c(F)cccc1F)C(=O)N(C)c1cc(F)c(SC(F)(F)F)cc1F` [(101)], in assay [3], the pest or weed control at 50 ppm was 100%. Also, in assay [4], the pest or weed control at 200 ppm worked out at 100%. `Cc1c(SC(F)F)ccc(N(C)C(=O)NC(=O)c2c(F)cccc2F)c1C` [(111)]: the pest or weed control at 500 ppm in assay [1] and in assay [5] was 100% in each case.

For `Cc1c(SC(F)F)ccc(N(C)C(=O)N(C)C(=O)c2c(F)cccc2F)c1C` [(112)], the pest or weed control at 500 ppm in assay [5] was found to be 100%. In assay [4], this compound gave a pest or weed control at 50 ppm of 100%. Regarding `CN(C(=O)N(C(=O)c1c(F)cccc1F)N(C)C)c1ccc(SC(F)(F)F)cc1F` [(115)], the pest or weed control at 500 ppm in assay [1] and in assay [5] was 100% in each case. `CON(C(=O)c1c(F)cccc1F)C(=O)N(C)c1ccc(SC(F)(F)F)cc1F` [(116)]: the pest or weed control at 500 ppm in assay [1] came out at 100%. On to `CN(C(=O)c1c(F)cccc1F)C(=O)N(C)c1ccc(SC(F)(F)F)cc1` [(117)], for which the pest or weed control at 500 ppm in assay [5] came out at 100%. Further, the pest or weed control at 50 ppm in assay [3] is 100%. Regarding `O=C(NC(=O)c1c(F)cccc1F)Nc1cc(Cl)c(SC(F)(F)C(F)F)c(Cl)c1` [comparative compound C, reference compound], in assay [6], the dead pest rate came out at 20%.
